Patent US10675306B2, “Adrenomedullin therapy to improve fetal implantation” (The University of North Carolina at Chapel Hill, priority 2015, dated 2020)
Entries after “also recorded” stand apart in the source; their conditions may differ. Positions of bridges follow the written chain, without caps; N, C: chain ends. No end group written: not given here.

Key:
Format in all cases: in vivo
wild-type mice [1] = experiment: Rate of pinopode formation throughout a treatment time course; conditions: AM 150 pmol, days 2.5-3.5 of pseudopregnancy, vs vehicle
Method: A, Scanning electron micrographs of vehicle- and AM-treated uteri throughout treatment time course. Scale bars, 1 μm. B, Quantitation of pinopodes per field throughout treatment time course. *p<0.05 at indicated time point, unpaired t test.
Further studies were performed to measure the effect of AM (150 pmol) on the rate of pinopode formation. The number of pinopodes was quantitated throughout a time course of AM treatment in wild-type mice (FIGS. 4A-4B).

wild-type mice [2] = experiment: Pinopode formation and size in uteri treated for 30 min (scanning electron micrographs); conditions: AM 150 pmol, vs vehicle
Method: A, Scanning electron micrographs of pinopodes in wild type uteri treated with vehicle, AM, or AM+AM(24-50) for 30 minutes. Scale bars, 5 μm. B-D, Quantitation of pinopodes per field (B), size (C), and percent area of field (D). n=3 animals, n>4 fields per animal. ***p<0.001, unpaired t test.
The effect of AM on pinopode formation and size was studied. Wild-type mice were treated with vehicle, AM (150 pmol), or AM (150 pmol)+AM(24-50) (2 nmol) for 30 min and the amount and size of pinopodes was quantitated (FIGS. 3A-3D).

BalbC mice = experiment: Blastocyst transfer after intrauterine injection: number and spacing of viable implantation sites; conditions: AM 150 pmol into lumen of each uterine horn, day 2.5 of pseudopregnancy, evaluated three days post-transfer, vs vehicle
Source text: A, Images of e6.5 embryos within uteri treated with vehicle, AM, or AM+AM(24-50) prior to transfer of 8 blastocysts per horn. Arrowheads indicate viable implantation sites as determined by uptake of Evans blue dye. Scale bar, 1 cm. B, Quantitation of viable implant sites per horn. ns, not significant. *p<0.05, Mann-Whitney test. C, Illustration of quantitation method for spacing of e6.5 embryos within uterine horns. SD, standard deviation. D, Quantitation of spacing using method depicted in (C). *p<0.05, unpaired t test.
It was hypothesized that administration of AM, an endocrine factor critical for a healthy pregnancy, to female mice would improve uterine receptivity and implantation rates. […] Dams were euthanized three days later, and the number and spacing of the viable implantation sites were evaluated.
Using this conceptually simple but elegant in vivo experiment, it was concluded that delivery of AM directly into the uterine lumen prior to the establishment of pregnancy promotes blastocyst implantation. This conclusion was arrived at by quantitating the number and spacing of viable implantation sites in uterine horns that were treated with either vehicle or AM prior to blastocyst transfer.

With “adrenomedullin (YRQSMNNFGGLRSFGCRFGTCTVQKLAHQIYQFTDKDKDNVAPRSKISPQGY; disulfide 16-21 (inferred); ends not checked; listed as Homo sapiens) [AM, peptide vasodilator]” the “rate of pinopode formation (pinopodes per field over time course)” value (wild-type mice [1]) was “accelerates pinopode formation”, the “pinopode formation (pinopodes per field)” value (wild-type mice [2]) was “promotes pinopode formation” and the pinopode size (wild-type mice [2]) was “promotes pinopode formation and size”. For the same substance, the “number of viable implantation sites per horn” value (BalbC mice; 8 blastocysts per horn 5-10 min later) was “improves implantation success; also recorded: significantly more embryo implantation sites; also recorded: significantly more viable implantation sites” and the “spacing of viable implantation sites” value (BalbC mice; 8 blastocysts per horn) was “improves implantation success and spacing; also recorded: evenly distributed throughout the length of the horn; also recorded: more evenly distributed throughout the length of the horn”.
